Laboratory results taken from ChEMBL document CHEMBL5518235, “Identification of Novel Series of Potent and Selective Relaxin Family Peptide Receptor 1 (RXFP1) Agonists” (J Med Chem, 2024).
pEC50, pIC50: −log10 of the molar value. Calls of active or inactive are those of the source. The rule behind the calls is not given here.

Tests used:
[1] = biological target: Sodium channel protein type 5 subunit alpha (Homo sapiens, UniProt Q14524); experiment: Inhibition of human Nav1.5 by automated electrophysiology recording; type: toxicity
[2] = Metabolic stability in cryopreserved human hepatocytes assessed as unbound intrinsic clearance measured per 10^6 cells at 1 uM measured after 120 mins by LC-MS/MS analysis; type: ADME, cell-based, Hepatocyte; settings: 2 h
[3] = Cytotoxicity against human HepG2 cells cultured under glucose condition assessed as reduction in cell viability; type: toxicity, cell-based
[4] = biological target: T1, Relaxin receptor 1 (Rattus norvegicus) (UniProt Q6R6I6); experiment: In vivo agonist activity at RXFP1 in Sprague-Dawley rat assessed as hemodynamic effect by measuring increase in blood pressure at 1.5 mg/kg, iv administered via bolus followed by 9.0 mg/kg, iv administered via infusion for 3 hrs and measured 1 hrs post washout; type: functional, organism-based
T1 sequence (whole entry): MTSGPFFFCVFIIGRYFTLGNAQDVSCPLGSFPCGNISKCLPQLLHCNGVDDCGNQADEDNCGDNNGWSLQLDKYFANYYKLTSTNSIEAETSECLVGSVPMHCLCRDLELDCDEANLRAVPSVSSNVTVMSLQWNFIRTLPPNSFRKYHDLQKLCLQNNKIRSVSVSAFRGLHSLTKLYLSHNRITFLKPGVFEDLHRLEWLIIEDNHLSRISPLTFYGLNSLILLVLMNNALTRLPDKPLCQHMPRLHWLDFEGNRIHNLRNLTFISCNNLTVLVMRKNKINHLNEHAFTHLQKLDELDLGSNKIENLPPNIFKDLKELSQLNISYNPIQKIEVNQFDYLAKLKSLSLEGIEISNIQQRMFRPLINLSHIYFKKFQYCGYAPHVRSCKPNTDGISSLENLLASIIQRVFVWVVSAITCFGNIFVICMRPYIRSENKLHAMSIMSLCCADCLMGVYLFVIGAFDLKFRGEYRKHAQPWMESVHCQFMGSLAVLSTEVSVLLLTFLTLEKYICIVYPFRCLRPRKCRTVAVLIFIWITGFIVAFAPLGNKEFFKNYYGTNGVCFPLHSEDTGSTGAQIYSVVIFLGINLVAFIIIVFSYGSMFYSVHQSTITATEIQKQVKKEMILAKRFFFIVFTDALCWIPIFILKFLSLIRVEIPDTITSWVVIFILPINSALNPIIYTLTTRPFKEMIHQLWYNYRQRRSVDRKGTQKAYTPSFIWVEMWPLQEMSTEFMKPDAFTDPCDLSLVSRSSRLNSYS

[5] = Volume of distribution at steady state in Han Wistar rat at 0.73 micromol/kg, iv by LC-MS/MS analysis; type: ADME, organism-based; settings: in vivo, dose 0.73 µmol/kg, read-out: Vdss
[6] = Metabolic stability in Han Wistar rat hepatocytes assessed as unbound intrinsic clearance measured […] at 1 uM after 120 mins by LC-MS/MS analysis; type: ADME, cell-based, Hepatocyte; settings: 2 h
[7] = biological target: T2, Relaxin receptor 1 (Rattus norvegicus, UniProt Q6R6I6); experiment: Agonist activity at rat RXFP1 expressed in T-Rex-CHO-K1 cells assessed as stimulation of cAMP production incubated for 60 mins by HTRF assay; type: functional, cell-based
T2 sequence (Q6R6I6 whole entry): T1 sequence (whole entry)

[8] = biological target: T3, Relaxin receptor 1 (Homo sapiens, UniProt Q9HBX9); experiment: Agonist activity at human RXFP1 expressed in T-Rex-CHO-K1 cells assessed as stimulation of cAMP production by measuring unbound concentration incubated for 45 mins by HTRF assay
T3 sequence (Q9HBX9 whole entry): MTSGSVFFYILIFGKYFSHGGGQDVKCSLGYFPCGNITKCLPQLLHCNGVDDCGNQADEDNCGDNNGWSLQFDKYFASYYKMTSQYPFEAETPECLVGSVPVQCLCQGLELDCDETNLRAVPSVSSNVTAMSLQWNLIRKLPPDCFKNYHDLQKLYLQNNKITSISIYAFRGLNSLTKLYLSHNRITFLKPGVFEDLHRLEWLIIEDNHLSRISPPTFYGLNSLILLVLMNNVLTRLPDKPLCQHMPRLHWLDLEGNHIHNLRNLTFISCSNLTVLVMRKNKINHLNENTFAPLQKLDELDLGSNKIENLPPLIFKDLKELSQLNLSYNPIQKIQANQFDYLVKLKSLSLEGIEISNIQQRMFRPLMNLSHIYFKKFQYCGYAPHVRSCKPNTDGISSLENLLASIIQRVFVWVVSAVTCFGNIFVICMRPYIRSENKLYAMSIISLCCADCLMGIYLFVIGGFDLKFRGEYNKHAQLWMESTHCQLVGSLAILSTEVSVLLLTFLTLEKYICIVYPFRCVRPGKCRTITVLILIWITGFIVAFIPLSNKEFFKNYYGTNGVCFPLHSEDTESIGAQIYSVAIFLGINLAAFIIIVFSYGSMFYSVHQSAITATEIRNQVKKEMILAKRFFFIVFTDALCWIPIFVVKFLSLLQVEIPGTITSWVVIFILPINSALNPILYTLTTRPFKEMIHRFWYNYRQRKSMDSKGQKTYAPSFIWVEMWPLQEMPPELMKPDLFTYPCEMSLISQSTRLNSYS

[9] = Half-life in Han Wistar rat at 0.73 micromol/kg, iv by LC-MS/MS analysis; type: ADME, organism-based; settings: in vivo, dose 0.73 µmol/kg
[10] = Oral bioavailability in Han Wistar rat at 1.46 micromol/kg by LC-MS/MS analysis; type: ADME, organism-based; settings: in vivo, 1.46 µmol/kg
[11] = Metabolic stability in Han Wistar rat hepatocytes assessed as intrinsic clearance measured per 10^6 cells at 1 uM after 120 mins by LC-MS/MS analysis; type: ADME, cell-based, Hepatocyte; settings: read-out: CLH
[12] = Metabolic stability in cryopreserved human hepatocytes assessed as intrinsic clearance measured per 10^6 cells at 1 uM after 120 mins by LC-MS/MS analysis; type: ADME, cell-based, Hepatocyte; settings: hepatocytes, 2 h, 1 µM
[13] = Genotoxicity in human A549 upto 1000 uM by micronucleus test; type: toxicity, cell-based; settings: a549, 1000 µM
[14] = Lipophilicity, logD of the compound in 1-octanol and phosphate buffer at pH 7.4 incubated for 3 hrs by shake flask method based LC/MS/MS analysis; type: physicochemical; settings: 1-octanol/phosphate buffer, pH 7.4

Sequence of Sodium channel protein type 5 subunit alpha (Q14524 whole entry): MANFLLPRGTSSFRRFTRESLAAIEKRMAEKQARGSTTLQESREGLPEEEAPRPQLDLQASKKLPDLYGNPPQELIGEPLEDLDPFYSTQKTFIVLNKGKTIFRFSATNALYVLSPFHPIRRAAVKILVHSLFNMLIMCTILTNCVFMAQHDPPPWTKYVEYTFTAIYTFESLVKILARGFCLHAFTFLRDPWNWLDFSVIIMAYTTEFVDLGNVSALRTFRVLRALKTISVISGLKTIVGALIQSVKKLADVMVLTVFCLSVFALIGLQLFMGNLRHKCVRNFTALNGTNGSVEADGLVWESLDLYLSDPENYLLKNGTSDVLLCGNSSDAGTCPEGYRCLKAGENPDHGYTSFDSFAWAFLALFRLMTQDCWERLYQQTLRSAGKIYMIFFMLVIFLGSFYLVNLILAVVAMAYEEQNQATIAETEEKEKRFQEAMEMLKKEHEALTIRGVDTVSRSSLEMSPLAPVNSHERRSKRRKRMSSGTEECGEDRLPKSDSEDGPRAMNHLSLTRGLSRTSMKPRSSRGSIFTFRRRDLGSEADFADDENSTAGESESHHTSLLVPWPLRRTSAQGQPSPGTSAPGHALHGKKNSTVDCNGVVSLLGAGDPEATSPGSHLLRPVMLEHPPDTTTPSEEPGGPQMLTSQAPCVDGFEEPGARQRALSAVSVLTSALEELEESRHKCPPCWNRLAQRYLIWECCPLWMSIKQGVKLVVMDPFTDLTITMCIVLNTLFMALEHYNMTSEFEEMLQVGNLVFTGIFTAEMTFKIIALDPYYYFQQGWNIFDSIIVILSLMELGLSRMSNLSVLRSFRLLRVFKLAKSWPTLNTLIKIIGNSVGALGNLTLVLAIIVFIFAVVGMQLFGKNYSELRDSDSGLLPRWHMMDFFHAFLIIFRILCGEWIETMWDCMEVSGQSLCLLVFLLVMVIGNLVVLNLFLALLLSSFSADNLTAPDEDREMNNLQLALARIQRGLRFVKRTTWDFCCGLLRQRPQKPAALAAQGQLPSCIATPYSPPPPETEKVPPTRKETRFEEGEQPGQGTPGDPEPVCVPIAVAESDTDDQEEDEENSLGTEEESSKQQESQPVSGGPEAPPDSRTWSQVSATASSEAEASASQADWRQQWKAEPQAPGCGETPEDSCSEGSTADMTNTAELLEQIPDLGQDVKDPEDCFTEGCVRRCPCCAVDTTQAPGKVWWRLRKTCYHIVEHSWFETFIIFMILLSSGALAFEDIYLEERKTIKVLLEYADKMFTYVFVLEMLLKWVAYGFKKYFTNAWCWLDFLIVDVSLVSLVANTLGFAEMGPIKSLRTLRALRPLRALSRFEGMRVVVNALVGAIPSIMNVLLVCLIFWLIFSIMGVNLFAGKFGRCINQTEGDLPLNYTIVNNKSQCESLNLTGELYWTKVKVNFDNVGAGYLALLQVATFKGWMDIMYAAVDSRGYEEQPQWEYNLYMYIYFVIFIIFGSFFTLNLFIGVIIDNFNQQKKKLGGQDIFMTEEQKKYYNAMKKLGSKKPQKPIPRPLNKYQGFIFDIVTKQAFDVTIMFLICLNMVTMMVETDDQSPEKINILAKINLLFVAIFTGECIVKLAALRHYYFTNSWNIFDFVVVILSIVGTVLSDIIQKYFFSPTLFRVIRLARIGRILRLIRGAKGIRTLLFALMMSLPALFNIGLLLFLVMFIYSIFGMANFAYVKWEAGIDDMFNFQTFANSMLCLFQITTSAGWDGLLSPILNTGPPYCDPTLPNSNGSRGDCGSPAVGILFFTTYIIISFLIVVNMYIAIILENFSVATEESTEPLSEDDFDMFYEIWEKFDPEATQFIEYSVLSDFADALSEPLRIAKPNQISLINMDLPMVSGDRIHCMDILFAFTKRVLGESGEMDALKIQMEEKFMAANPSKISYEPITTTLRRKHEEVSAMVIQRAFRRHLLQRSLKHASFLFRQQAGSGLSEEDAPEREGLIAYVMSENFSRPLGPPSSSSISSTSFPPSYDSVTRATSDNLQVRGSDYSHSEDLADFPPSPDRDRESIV

CL free [2]: 2.1 µL/min
Vd [5]: 2.3 L/kg
CL free [6]: 2.4 µL/min
pEC50 [7]: 6.70
pEC50 [8]: > 10.50
half-life [9]: 2.9 h
bioavailability [10]: 11%
hepatocyte CLint at 1 µM [11]: 24 µL/min/1e6 cells
CLH [12]: 21 µL/min/1e6 cells
logD at 3 h [14]: 4.9
SMILES: COc1cc(F)c(O[C@H]2CC[C@@](C)(C(=O)O)CC2)cc1C(=O)N[C@@H]1[C@H]2CC[C@H](C2)[C@@H]1C(=O)Nc1ccc(F)c(S(F)(F)(F)(F)F)c1
pIC50 [1]: 4.68
pIC50 [3]: 4.17
Activity [4]: Active
Activity [13]: Non-Toxic
